In patent US20100144853A1, “NOVEL COMBINED ADMINISTRATION” (priority 2008, published 2010):

Experiments:
Assay type in all cases: in vitro ADME
Lipase from Hog Pancreas [1] = assay: Stability of COMPOUND A with Lipase, Procedure C (premix of COMPOUND A and Lipase, then COMPOUND B); settings: 0.55 mg/mL Lipase
Experimental: Procedure C (Premix of COMPOUND A and Lipase, Followed by Addition of COMPOUND B): Remark: Final COMPOUND B concentration: 3 μg/ml 220 μL of drug solution (stock A) and 220 μL of FeSSIF concentrate (Lecithin 37.5 mM and Sodium taurocholate 150 mM) were mixed. At time zero the reaction was started by addition of 1700 μl of Lipase in phosphate buffered saline solution (from stock C to obtain a final enzyme concentration of 0.55 mg/mL). The mixture was incubated at 37° C. and after 5 min, a 200 μL sample was taken for HPLC analysis. Then 60 μL of COMPOUND B solution (stock B) previously diluted 1:10 in phosphate buffered saline solution (corresponds to 100 μg/mL COMPOUND B) was added and as a function of time, samples of 200 μL were taken, diluted immediately with 600 μL of isopropanol and centrifuged for 5 min at 3000 rpm. The supernatant was analyzed by HPLC. 1700 μl of Lipase in phosphate buffered saline solution (from stock C to obtain a final enzyme concentration of 0.55 mg/mL) were mixed with 220 μL of FeSSIF concentrate and at time zero 220 μL of drug solution (stock A) was added. After 7 min of incubation, a 200 μL sample was taken, 60 μL of diluted COMPOUND B solution (stock B) was added and continued as described for the 1st experiment.

[2] = Stability of COMPOUND A in human intestinal fluids, Procedure D (in solution), stimulated; settings: stimulated intestinal fluid
Experimental: Procedure D (COMPOUND A and COMPOUND B in Solution):
Stimulated Intestinal Fluids: the fluids from 3 different subjects were collected after fasting overnight with a nasojejunal tube and pooled. For the stimulation, twenty minutes before the beginning of the collection, volunteers were provided with chewing-gums and were asked to chew over a 15 minutes period, maintaining the taste by replacing the sticks of gum approximately every 2 minutes.
5 mg of thioisobutyric acid S-(2-{[1-(2-ethyl-butyl)-cyclohexanecarbonyl]-amino}-phenyl)ester (COMPOUND A) were dissolved in 50 μL ethanol and 950 μL mixed micelles solution containing Soybean lecithin/Sodium glycocholate (158/97 mg/mL) in water were added.
3 mg of 1-(3-hexyl-4-oxo-oxetan-2-yl)tridecan-2-yl 2-formyl-amino-4-methyl-pentanoate (COMPOUND B) were dissolved in 1 mL of ethanol. 100 μL of this solution was diluted with 900 μL of FeSSIF concentrate (10×).
100 μL of drug solution (stock D) were mixed with 100 μL of esterase inhibitor solution (stock E) and 800 μL of pro-FaSSIF were added.
100 μL of premix (stock F) were mixed with 200 μL of drug solution (stock A).
200 μL of premix (stock F) were mixed with 100 μL of drug solution (stock A). 315 μL of intestinal fluids (fasted and stimulated) were pre-heated at 37° C. for about 5 min. At time zero, 35 μL of premix solutions were added, i.e. either stock A, stock G, stock H or stock F, to obtain 50 μg/mL of COMPOUND A and final concentrations of COMPOUND B of 0, 1, 2 or 3 μg/mL. The samples were incubated at 37° C. while gently stirring. The reaction was stopped after 2 min or after 10 min by dilution of 1 part of the reaction mixture with 3 parts of isopropanol and the resulting mixture was centrifuged for 5 min at 5′000 rpm. The supernatant was analyzed by HPLC.

Lipase from Hog Pancreas [3] = assay: Stability of COMPOUND A with Lipase, Procedure B' (as B, lower COMPOUND B concentrations); settings: after 10 min incubation, 0.55 mg/mL (11 U/mL) Lipase
Experimental: 100 μL of drug solution (stock A) were mixed with 0, 12, 25 or 50 μL esterase inhibitor solution (stock B) and 100, 88, 75 or 50 μL of FeSSIF concentrate (Lecithin37.5 mM and Sodium taurocholate 150 mM) were added to make up 200 μL of a solution with COMPOUND B concentrations of 0, 12, 25 or 50 μg/mL. At time zero, 800 μL of Lipase in phosphate buffered saline solution (from stock C to obtain final enzyme concentrations of 0.55 mg/mL) were added. The reaction mixture was incubated at 37° C. and stopped after 10 minutes by diluting one part of the reaction mixture with 3 parts Isopropanol.
Procedure B′ (Premix of COMPOUND B and COMPOUND A, Followed by Addition of Lipase):
The tests were repeated as described under procedure B but with final COMPOUND B concentrations of 0, 3, 6, 12 μg/ml.

Concentration of COMPOUND A (Lipase from Hog Pancreas [1]; +3 μg/mL COMPOUND B at T = 5 min, time 0 min): 45300 ng/mL | Concentration of COMPOUND A (Lipase from Hog Pancreas [1]; +3 μg/mL COMPOUND B at T = 5 min, time 5 min): 41500 ng/mL | Concentration of COMPOUND A (Lipase from Hog Pancreas [1]; +3 μg/mL COMPOUND B at T = 5 min, time 10 min): 39100 ng/mL | Concentration of COMPOUND A (Lipase from Hog Pancreas [1]; +3 μg/mL COMPOUND B at T = 5 min, time 15 min): 39300 ng/mL | Concentration of COMPOUND A (Lipase from Hog Pancreas [1]; +3 μg/mL COMPOUND B at T = 5 min, time 20 min): 39100 ng/mL | Concentration of COMPOUND A (Lipase from Hog Pancreas [1]; +3 μg/mL COMPOUND B at T = 5 min, time 25 min): 39300 ng/mL | Concentration of COMPOUND A (Lipase from Hog Pancreas [1]; +3 μg/mL COMPOUND B at T = 5 min, time 30 min): 39300 ng/mL | Concentration of COMPOUND A (Lipase from Hog Pancreas [1]; +3 μg/mL COMPOUND B at T = 7 min, time 0 min): 45300 ng/mL | Concentration of COMPOUND A (Lipase from Hog Pancreas [1]; +3 μg/mL COMPOUND B at T = 7 min, time 5 min): 40400 ng/mL | Concentration of COMPOUND A (Lipase from Hog Pancreas [1]; +3 μg/mL COMPOUND B at T = 7 min, time 10 min): 38400 ng/mL | Concentration of COMPOUND A (Lipase from Hog Pancreas [1]; +3 μg/mL COMPOUND B at T = 7 min, time 15 min): 38200 ng/mL | Concentration of COMPOUND A (Lipase from Hog Pancreas [1]; +3 μg/mL COMPOUND B at T = 7 min, time 20 min): 37900 ng/mL | Concentration of COMPOUND A (Lipase from Hog Pancreas [1]; +3 μg/mL COMPOUND B at T = 7 min, time 25 min): 37800 ng/mL | Concentration of COMPOUND A (Lipase from Hog Pancreas [1]; +3 μg/mL COMPOUND B at T = 7 min, time 30 min): 37900 ng/mL | Concentration of COMPOUND A ([2]; COMPOUND B 0 μg/mL, 2 min, theoretical 50 μg/mL): 480 ng/mL | Concentration of COMPOUND A ([2]; COMPOUND B 0 μg/mL, 10 min): 480 ng/mL | Concentration of COMPOUND A ([2]; COMPOUND B 1 μg/mL, 2 min): 26060 ng/mL | Concentration of COMPOUND A ([2]; COMPOUND B 1 μg/mL, 10 min): 2760 ng/mL | Concentration of COMPOUND A ([2]; COMPOUND B 2 μg/mL, 2 min): 38920 ng/mL | Concentration of COMPOUND A ([2]; COMPOUND B 2 μg/mL, 10 min): 24930 ng/mL | Concentration of COMPOUND A ([2]; COMPOUND B 3 μg/mL, 2 min): 46910 ng/mL | Concentration of COMPOUND A ([2]; COMPOUND B 3 μg/mL, 10 min): 40480 ng/mL | Concentration of COMPOUND A (Lipase from Hog Pancreas [3]; COMPOUND B 0 μg/ml): 14200 ng/mL | Concentration of COMPOUND A (Lipase from Hog Pancreas [3]; COMPOUND B 3 μg/ml): 45900 ng/mL | Concentration of COMPOUND A (Lipase from Hog Pancreas [3]; COMPOUND B 6 μg/ml): 46500 ng/mL | Concentration of COMPOUND A (Lipase from Hog Pancreas [3]; COMPOUND B 12 μg/ml): 45700 ng/mL
SMILES: CCC(CC)CC1(C(=O)Nc2ccccc2SC(=O)C(C)C)CCCCC1 [COMPOUND A, thioisobutyric acid S-(2-{[1-(2-ethyl-butyl)-cyclohexanecarbonyl]-amino}-phenyl)ester]
